Source: BindingDB's records for doi:10.1021/cb100387r (Riken Advanced Science Institute, 2011)
pIC50: −log10 of the molar value.

Biological target: Protein disulfide-isomerase (Homo sapiens, UniProt P07237)
Assay: Reductase Activity Assay
Settings: pH 7
Description: Reductase activity was assayed by measuring the PDI-catalyzed reduction of insulin in the presence of DTT, thus measuring the aggregation of reduced insulin chains at 650nm.

Protein disulfide-isomerase, sequence (P07237 whole entry): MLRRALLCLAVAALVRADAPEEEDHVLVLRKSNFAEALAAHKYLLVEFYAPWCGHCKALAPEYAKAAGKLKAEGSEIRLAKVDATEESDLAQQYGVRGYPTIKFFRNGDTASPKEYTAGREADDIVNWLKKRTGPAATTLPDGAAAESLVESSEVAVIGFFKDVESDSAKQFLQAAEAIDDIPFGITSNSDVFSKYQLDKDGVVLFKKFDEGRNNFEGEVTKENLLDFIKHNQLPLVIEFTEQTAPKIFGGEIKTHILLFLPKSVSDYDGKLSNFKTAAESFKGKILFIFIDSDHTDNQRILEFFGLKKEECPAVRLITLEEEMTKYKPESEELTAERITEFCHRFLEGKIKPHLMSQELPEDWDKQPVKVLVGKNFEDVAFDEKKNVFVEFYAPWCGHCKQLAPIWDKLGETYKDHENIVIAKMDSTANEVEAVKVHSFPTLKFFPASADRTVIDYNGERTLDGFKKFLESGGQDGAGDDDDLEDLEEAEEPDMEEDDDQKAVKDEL

Structure (SMILES) | pIC50
C/C1=C\CC(O)/C(C)=C/[C@@H](O)C(C)(C)CCC1 (stereo partly specified) [Juniferol, 12] | < 5.00
COc1ccc(C(=O)OC2C/C=C(\C)CCCC(C)(C)[C@H](O)/C=C/2C)cc1 (stereo partly specified) [Juniferdin derivative, 2] | < 5.00
C/C1=C\CC(OC(=O)c2ccc(O)cc2)/C(C)=C/[C@@H](O)C(C)(C)CCC1 (stereo partly specified) [Juniferdin derivative, 1] | 6.81
C/C1=C\[C@@H](O)C(C)(C)CCC[C@@]2(C)O[C@@H]2CC1OC(=O)c1ccc(O)cc1 (stereo partly specified) [Juniferdin derivative, 13] | 6.78
C/C1=C\CC(OC(=O)c2ccc(F)cc2)/C(C)=C/[C@@H](O)C(C)(C)CCC1 (stereo partly specified) [Juniferdin derivative, 7] | 6.02
CCCCCCCCOC(=O)c1ccc(O)cc1 [Juniferdin derivative, 8] | < 5.00
CC(=O)Oc1ccc(C(=O)OC2C/C=C(\C)CCCC(C)(C)[C@H](O)/C=C/2C)cc1 (stereo partly specified) [Juniferdin derivative, 4] | 6.20
O=C(OC1CCCCCCCCCCC1)c1ccc(O)cc1 [Juniferdin derivative, 10] | 6.25
CC(=O)O[C@@H]1/C=C(\C)C(OC(=O)c2ccc(O)cc2)C/C=C(\C)CCCC1(C)C (stereo partly specified) [Juniferdin derivative, 3] | 6.34
C/C1=C\CC(OC(=O)c2ccc(O)cc2)[C@@]2(C)O[C@@H]2[C@@H](O)C(C)(C)CCC1 (stereo partly specified) [Juniferdin derivative, 14] | 5.60
C/C1=C\[C@@H](O)C(C)(C)CCC[C@](C)(O)[C@@H](O)CC1OC(=O)c1ccc(O)cc1 (stereo partly specified) [Juniferdin derivative, 17] | 5.73

Next, values leading:

pIC50 | Structure (SMILES)
5.30 | C/C1=C\CC(OC(=O)c2ccccc2)/C(C)=C/[C@@H](O)C(C)(C)CCC1 (stereo partly specified) [Juniferdin derivative, 6]
6.16 | CC(=O)Oc1ccc(C(=O)OC2C/C=C(\C)CCCC(C)(C)[C@H](OC(C)=O)/C=C/2C)cc1 (stereo partly specified) [Juniferdin derivative, 5]
< 5.00 | CC1(C)CCC[C@@]2(C)O[C@@H]2CC(OC(=O)c2ccc(O)cc2)[C@@]2(C)O[C@@H]2[C@H]1O (stereo partly specified) [Juniferdin derivative, 15]
< 5.00 | C/C1=C\[C@@H](O)C(C)(C)CCC[C@@](C)(O)[C@H](O)CC1OC(=O)c1ccc(O)cc1 (stereo partly specified) [Juniferdin derivative, 16]
5.55 | O=C(OC1CCCCCCC1)c1ccc(O)cc1 [Juniferdin derivative, 9]
